Experimental data published in article PMC3271436 (Osteoarthritis and Cartilage, 2008).

Columns and labels:
Type in all cases: biochemical
[1] = target: T1, IGFBP-5 protease activity in human osteoarthritic joint fluid (Homo sapiens, UniProt P09871)
T1 sequence (P09871 16-688): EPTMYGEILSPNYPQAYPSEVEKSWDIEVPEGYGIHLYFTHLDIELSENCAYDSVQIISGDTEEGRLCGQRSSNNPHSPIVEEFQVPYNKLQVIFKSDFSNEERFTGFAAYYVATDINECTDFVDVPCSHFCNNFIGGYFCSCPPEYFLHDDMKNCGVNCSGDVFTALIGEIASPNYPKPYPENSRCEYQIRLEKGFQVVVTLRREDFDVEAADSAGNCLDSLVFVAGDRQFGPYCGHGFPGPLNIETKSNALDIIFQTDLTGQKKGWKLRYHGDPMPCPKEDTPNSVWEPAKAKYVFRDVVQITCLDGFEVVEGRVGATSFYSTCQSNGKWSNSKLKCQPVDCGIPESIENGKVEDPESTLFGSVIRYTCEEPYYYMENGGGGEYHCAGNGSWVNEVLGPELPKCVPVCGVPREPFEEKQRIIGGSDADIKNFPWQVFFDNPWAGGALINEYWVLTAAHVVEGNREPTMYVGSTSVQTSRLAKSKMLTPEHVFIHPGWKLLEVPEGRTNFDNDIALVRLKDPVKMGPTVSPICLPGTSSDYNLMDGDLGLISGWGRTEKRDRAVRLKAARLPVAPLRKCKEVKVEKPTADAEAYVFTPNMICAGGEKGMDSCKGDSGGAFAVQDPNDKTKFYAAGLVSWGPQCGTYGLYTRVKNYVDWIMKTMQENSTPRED

[2] = target: T2, purified IGFBP-5 protease from human osteoarthritic joint fluid (complement 1s) (Homo sapiens, UniProt P09871); assay: IGFBP-5 cleavage by protease purified from joint fluid
T2 sequence (P09871 16-688): T1 sequence (P09871 16-688)

[3] = target: T3, purified C1s (Calbiochem) (Homo sapiens, UniProt P09871); assay: C1s chromogenic assay with purified commercial C1s, substrate S-2765
T3 sequence (P09871 16-688): T1 sequence (P09871 16-688)

SMILES | Human Joint Fluid IC50 ([1]; crude joint fluid, 118 ng IGFBP-5, 16 h at 37°C) | Purified Protease IC50 ([2]; protease purified through Con-A step, 118 ng IGFBP-5, 16 h at 37°C) | C1s inhibition in words [3] | IC50 [3] [nM] | activity in words against IGFBP-5 protease activity in crude joint fluid ([1]; 0.1 to 360 uM) | IC50 [2] [nM] | activity in words against the purified joint fluid preparation ([2]; purified joint fluid preparation)
c1cnc2c(c1)ccc1cccnc12 [1,10-phenanthroline] | No Inhibition | No inhibition | – | – | – | – | –
N=C(N)c1ccc2cc(OC(=O)c3ccc(N=C(N)N)cc3)ccc2c1 [FUT175] | – | – | potent C1s inhibitor | 70 | most active | 1000 | most active
